Assay results published in patent publication US8791132B2, “Compounds and methods for treatment of hypertension” (Medivation Technologies, Inc., priority 2011, dated 2014).
Where two headings read alike, the source gives them in different places. One block for each molecule: values may come before it.

What was measured:
[1] = biological target: T1, human recombinant adrenergic α2A receptor (Homo sapiens, UniProt P08913); assay: Radioligand binding, adrenergic α2A ([3H]MK-912)
T1 construct: expressed in transfected cells; host or cells: insect Sf9 cells
T1 sequence (P08913 1-465): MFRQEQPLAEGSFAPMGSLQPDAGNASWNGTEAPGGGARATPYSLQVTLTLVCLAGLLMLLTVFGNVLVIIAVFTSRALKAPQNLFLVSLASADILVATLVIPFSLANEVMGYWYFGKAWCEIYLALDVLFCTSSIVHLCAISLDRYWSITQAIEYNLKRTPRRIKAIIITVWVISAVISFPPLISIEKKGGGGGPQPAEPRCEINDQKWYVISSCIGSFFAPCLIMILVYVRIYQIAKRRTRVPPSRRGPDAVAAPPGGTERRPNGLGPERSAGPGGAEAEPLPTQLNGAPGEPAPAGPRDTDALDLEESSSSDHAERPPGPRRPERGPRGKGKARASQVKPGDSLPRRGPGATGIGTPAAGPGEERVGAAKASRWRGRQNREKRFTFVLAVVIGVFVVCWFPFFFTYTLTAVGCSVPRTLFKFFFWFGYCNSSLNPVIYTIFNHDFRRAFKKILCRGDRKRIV
Protocol: To evaluate in radioligand binding assays the activity of compounds of the invention, human recombinant adrenergic α2A receptor expressed in insect Sf9 cells (Uhlen, S. et al, J. Pharmacol. Exp. Ther. 271:1558, 1994) in a modified Tris-HCl buffer (50 mM Tris-HCl, pH 7.4, 12.5 mM MgCl2, 2 mM EDTA) was used. Compounds of invention were incubated with 1 nM [^3H]MK-912 for 60 min at 25° C. MK912 is (2S-trans)-1,3,4,5′,6,6′,7,12b-octahydro-1′,3′-dimethyl-spiro[2H-benzofuro[2,3-a]quinolizine-2,4′(1′H)-pyrimidin]-2′(3′H)-one hydrochloride. Non-specific binding was estimated in the presence of 10 μM WB-4101 (2-(2,6-Dimethoxyphenoxyethyl)aminomethyl-1,4-benzodioxane hydrochloride). Receptor proteins were filtered and washed, the filters were then counted to determine [^3H]MK-912 specifically bound. […] Compounds of the invention were tested in this biochemical assay and percent inhibition of specific binding was determined. Biochemical assay results are presented as the percent inhibition of specific binding in Table B1.

[2] = biological target: T2, rat adrenergic α1B receptor (Rattus norvegicus, UniProt P15823); assay: Radioligand binding, adrenergic α1B ([3H]Prazosin); conditions: for Percentage inhibition of ligand binding, Adrenergic α1B / Percentage inhibition of ligand binding, Adrenergic α1B (0.1 μM): 0.1 µM
T2 construct: rat adrenergic α1B receptor obtained from Wistar Rat liver; from tissue; host or cells: Wistar rat liver
T2 sequence (P15823 1-515): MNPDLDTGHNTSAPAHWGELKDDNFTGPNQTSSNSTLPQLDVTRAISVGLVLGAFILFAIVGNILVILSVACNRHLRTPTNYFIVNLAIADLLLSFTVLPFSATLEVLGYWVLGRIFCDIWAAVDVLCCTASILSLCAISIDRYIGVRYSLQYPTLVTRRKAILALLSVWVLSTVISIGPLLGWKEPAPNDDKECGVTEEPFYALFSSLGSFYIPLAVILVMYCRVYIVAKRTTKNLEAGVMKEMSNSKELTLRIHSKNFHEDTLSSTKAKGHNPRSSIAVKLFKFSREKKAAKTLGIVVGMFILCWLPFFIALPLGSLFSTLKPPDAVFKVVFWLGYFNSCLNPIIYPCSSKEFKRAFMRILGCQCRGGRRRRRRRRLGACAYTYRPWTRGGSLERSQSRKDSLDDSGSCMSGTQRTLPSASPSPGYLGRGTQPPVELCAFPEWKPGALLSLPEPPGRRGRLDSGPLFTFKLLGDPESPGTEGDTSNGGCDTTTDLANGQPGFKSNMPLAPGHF
Protocol: To evaluate in radioligand binding assays the activity of compounds of the invention, rat adrenergic α1B receptor obtained from Wistar Rat liver (Garcia-S'ainz, J. et al, Biochem. Biophys. Res. Commun. 186:760, 1992; Michel, A. et al, Br. J. Pharmacol. 98:883, 1989) in a modified Tris-HCl buffer (50 mM Tris-HCl buffer, pH 7.4, 0.5 mM EDTA) was used. Compounds of the invention were incubated with 0.25 nM [^3H]Prazosin for 60 min at 25° C. Non-specific binding was estimated in the presence of 10 μM phentolamine. Receptor proteins were filtered and washed, the filters were then counted to determine [^3H]Prazosin specifically bound. […] Compounds of the invention were tested in this biochemical assay and percent inhibition of specific binding was determined. Biochemical assay results are presented as the percent inhibition of specific binding in Table B1.

[3] = biological target: T3, human recombinant adrenergic α2B receptor (Homo sapiens, UniProt P18089); assay: Radioligand binding, adrenergic α2B ([3H]Rauwolscine); conditions: for Percentage inhibition of ligand binding, Adrenergic α2B / Percentage inhibition of ligand binding, Adrenergic α2B (0.03 μM): 0.03 µM
T3 construct: expressed in transfected cells; host or cells: CHO-K1
T3 sequence (P18089 1-450): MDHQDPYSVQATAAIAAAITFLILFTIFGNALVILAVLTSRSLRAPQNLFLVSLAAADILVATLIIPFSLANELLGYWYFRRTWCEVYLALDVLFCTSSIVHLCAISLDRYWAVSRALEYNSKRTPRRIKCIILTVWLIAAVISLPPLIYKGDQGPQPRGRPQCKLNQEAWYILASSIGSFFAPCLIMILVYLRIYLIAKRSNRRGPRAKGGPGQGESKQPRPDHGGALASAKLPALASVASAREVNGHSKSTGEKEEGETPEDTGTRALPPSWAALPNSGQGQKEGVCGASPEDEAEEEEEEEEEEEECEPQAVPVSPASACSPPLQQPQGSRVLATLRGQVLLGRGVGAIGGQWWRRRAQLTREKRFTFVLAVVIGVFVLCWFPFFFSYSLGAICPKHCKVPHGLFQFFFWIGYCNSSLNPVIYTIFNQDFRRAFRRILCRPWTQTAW
Protocol: To evaluate in radioligand binding assays the activity of compounds of the invention, human recombinant adrenergic α2B receptor expressed in Chinese hamster ovary (CHO) K1 cells (Uhlen, S. et al, Eur. J. Pharmacol. 343(1):93, 1998) in a modified Tris-HCl buffer (50 mM Tris-HCl, pH 7.4, 12.5 mM MgCl2, 1 mM EDTA, 0.2% BSA) was used. Compounds of the invention were incubated with 2.5 nM [3H]Rauwolscine for 60 min at 25° C. Non-specific binding was estimated in the presence of 10 μM Prazosin. Receptor proteins were filtered and washed, the filters were then counted to determine [3H]Rauwolscine specifically bound. […] Compounds of the invention were tested in this biochemical assay and percent inhibition of specific binding was determined. Biochemical assay results are presented as the percent inhibition of specific binding in Table B1.

[4] = compound at 0.1 μM, [3H]Prazosin, repeat assays, each datapoint shown, read-out: Percentage inhibition of ligand binding, Adrenergic α1B
[5] = compound at 0.03 μM, [3H]Rauwolscine, repeat assays, each datapoint shown
[6] = compound at 0.1 μM, [3H]Prazosin, repeat assays, each datapoint shown
[7] = compound at 0.03 μM, [3H]Rauwolscine, repeat datapoints each shown
[8] = compound at 0.1 μM, [3H]Prazosin, repeat datapoints each shown
[9] = read-out: Percentage inhibition of ligand binding, Adrenergic α2B (0.1 μM), compound at 0.1 μM, [3H]Rauwolscine, repeat datapoints each shown
[10] = read-out: Percentage inhibition of ligand binding, Adrenergic α2A (0.1 μM), compound at 0.1 μM, [3H]MK-912, repeat datapoints each shown
[11] = read-out: Percentage inhibition of ligand binding, Adrenergic α1B (0.1 μM), compound at 0.1 μM, [3H]Prazosin, repeat datapoints each shown
[12] = read-out: Percentage inhibition of ligand binding, Adrenergic α2B (0.03 μM), compound at 0.03 μM, [3H]Rauwolscine, repeat datapoints each shown

- inhibition at 0.1 µM ([1]; compound at 0.1 μM, [3H]MK-912, repeat assays, each datapoint shown, read-out: Percentage inhibition of ligand binding, Adrenergic α2A): 23%
- inhibition at 0.1 µM [2, 4]: 58%
SMILES: Cc1ccc2c(c1)c1c(n2CC(O)c2ccncc2)CN(C)CC1 (stereo not shown) [compound 8]

- Percentage inhibition of ligand binding, Adrenergic α2B [3, 5]: 75%
- Percentage inhibition of ligand binding, Adrenergic α1B [2, 6]: 12%
SMILES: Cc1ccc2c(c1)c1c(n2CC(OC(=O)C(N)C(C)C)c2ccncc2)CCN(C)C1 (single isomer, unassigned) [25b]

- inhibition at 0.1 µM ([3]; 0.1 μM compound, read-out: Percentage inhibition of ligand binding, Adrenergic α2B): 27%
- Ki ([3]; read-out: Ki α2B): 152 nM
- inhibition at 0.1 µM ([2]; 0.1 μM compound, read-out: Percentage inhibition of ligand binding, Adrenergic α1B): 5%
SMILES: Cc1ccc2c(c1)c1c(n2CC(C)(O)c2cccnc2)CC[N+](C)([O-])C1 (stereo not shown) [II-105, 1-(2,8-dimethyl-2-oxy-1,2,3,4-tetrahydro-pyrido[4,3-b]indol-5-yl)-2-pyridin-3-yl-propan-2-ol]

- Percentage inhibition of ligand binding, Adrenergic α2B (0.03 μM) [3, 7]: 104%
- Percentage inhibition of ligand binding, Adrenergic α1B (0.1 μM) [2, 8]: 94%
SMILES: Cc1ccc(CCn2c3c(c4cc(Cl)cnc42)C2CCCN2CC3)cn1 (single isomer, unassigned) [137a]

- inhibition at 0.1 µM [3, 9]: 63%
- inhibition at 0.1 µM [1, 10]: 88%
SMILES: Cc1ccc(CCn2c3c(c4cc(C(F)(F)F)ccc42)CN(C)CC3)cc1 [compound 210]

- inhibition at 0.1 µM [3, 9]: 102%
- inhibition at 0.1 µM [1, 10]: 97%
SMILES: CN1CCc2c(c3ccc(Cl)cc3n2CCc2ccccc2)C1 [compound 215]

- Percentage inhibition of ligand binding, Adrenergic α1B (0.1 μM) [2, 8]: 7%
SMILES: Cc1ccc2c(c1)c1c(n2CC(c2ccncc2)N2CCCC2)CCN(C)C1 (single isomer, unassigned) [152b]

- Percentage inhibition of ligand binding, Adrenergic α1B [2, 6]: 57%
SMILES: Cc1ccc2c(c1)c1c(n2CC(O)c2ccc(F)cc2)CCN(C)C1 (stereo not shown) [30a]

SMILES: CC(O)(Cn1c2c(c3cc(Cl)ccc31)CN(C1CCC1)CC2)c1cccnc1 (single isomer, unassigned) [II-118a]
- Percentage inhibition of ligand binding, Adrenergic α2B (0.03 μM) [3, 7]: 27%
- inhibition at 0.1 µM [1, 10]: 3%

- Percentage inhibition of ligand binding, Adrenergic α2B [3, 5]: 54%
- Percentage inhibition of ligand binding, Adrenergic α1B [2, 6]: 4%
SMILES: Cc1ccc2c(c1)c1c(n2CC(OC(=O)C(N)C(C)C)c2ccncc2)CCN(C)C1 (single isomer, unassigned) [25a]

- inhibition at 0.1 µM [3, 9]: 84%
- inhibition at 0.1 µM [1, 10]: 80%
SMILES: CN1CCc2c(c3cc(C(F)(F)F)ccc3n2CCc2ccccc2)C1 [compound 209]

- Percentage inhibition of ligand binding, Adrenergic α1B (0.1 μM) [2, 8]: 43%
SMILES: CN1CCc2c(c3cc(Cl)ccc3n2CC(C)(O)c2ccc(C(F)(F)F)nc2)C1 (single isomer, unassigned) [143a]

- inhibition at 0.1 µM [2, 11]: 25%
SMILES: Cc1ccc2c(c1)c1c(n2CC(O)c2cn[nH]c2)CCN(C)C1 (single isomer, unassigned) [II-106a]

- inhibition at 0.03 µM [3, 12]: 37%
- Percentage inhibition of ligand binding, Adrenergic α1B (0.1 μM) [2, 8]: −2%
SMILES: Cc1cnc2c(c1)c1c(n2CC(N)c2ccc(C#N)cc2)CCN(C)C1 (single isomer, unassigned) [159a]

- inhibition at 0.1 µM [3, 9]: 70%
- inhibition at 0.1 µM [1, 10]: 69%
SMILES: Cc1ccc2c(c1)c1c(n2CCC2CCCCC2)CCN(C)C1 [compound 205]

- inhibition at 0.03 µM [3, 12]: -2%
- inhibition at 0.1 µM [2, 11]: 37%
SMILES: Cc1ccc2c(c1)c1c(n2CC(C)(O)c2ccc(C)nc2)CN(C)CC1 (stereo not shown) [196b]

- inhibition at 0.1 µM [2, 4]: 57%
SMILES: CN1CCc2c(n(CC(O)c3ccncc3)c3ccc(Cl)cc23)C1 (stereo not shown) [compound 41]

- inhibition at 0.1 µM [3, 9]: 107%
- Ki [1]: 2.48 nM
- inhibition at 0.1 µM [1, 10]: 87%
SMILES: Cc1ccc2c(c1)c1c(n2CCc2ccccc2F)CCN(C)C1 [compound 204]

- inhibition at 0.1 µM [3, 9]: 64%
- inhibition at 0.1 µM [1, 10]: 66%
SMILES: CN1CCc2c(c3cc(Cl)ccc3n2CCC2CCCCC2)C1 [compound 212]

- Percentage inhibition of ligand binding, Adrenergic α1B (0.1 μM) [2, 8]: 69%
SMILES: Cc1ccc2c(c1)c1c(n2CC(O)c2ccncc2)CCN2CCCC12 (stereo not shown) [129b]

- inhibition at 0.1 µM [2, 4]: 20%
SMILES: Cc1ccc2c(c1)c1c(n2CC(O)c2ccncc2)C(C)N2CCC1C2 (stereo not shown) [compound 38]

- Percentage inhibition of ligand binding, Adrenergic α1B (0.1 μM) [2, 8]: 20%
SMILES: Cc1ccc2c(c1)c1c(n2CC(N=[N+]=[N-])c2ccncc2)CCN(C)C1 (racemic) [V-1a, 5-(2-azido-2-(pyridin-4-yl)ethyl)-2,3,4,5-tetrahydro-2,8-dimethyl-1H-pyrido[4,3-b]indole]

- inhibition at 0.03 µM ([3]; compound at 0.03 μM, [3H]Rauwolscine, repeat assays, each datapoint shown, read-out: Percentage inhibition of ligand binding, Adrenergic α2B): 59%
- inhibition at 0.1 µM [2, 4]: 35%
SMILES: CN1CCc2c(c3cc(Cl)ccc3n2CC(O)c2cccnc2)C1 (stereo not shown) [compound 7]

- Percentage inhibition of ligand binding, Adrenergic α2B (0.03 μM) [3, 7]: 94%
- Percentage inhibition of ligand binding, Adrenergic α2A (0.1 μM) ([1]; compound at 0.1 μM, [3H]MK-912, repeat datapoints each shown, 0.1 µM): 96%
SMILES: C/C(=C\n1c2c(c3cc(C)ccc31)C1CCCCN1CC2)c1ccc(F)cc1 (single isomer, unassigned) [199a]

- Percentage inhibition of ligand binding, Adrenergic α2B ([3]; 0.03 μM compound): 12%
- inhibition at 0.1 µM ([1]; 0.1 μM compound, read-out: Percentage inhibition of ligand binding, Adrenergic α2A): 7%
SMILES: Cc1cnc2c(c1)c1c(n2CC(O)c2ccc(C)nc2)CCN(C)C1 (single isomer, unassigned) [II-100a]

- Percentage inhibition of ligand binding, Adrenergic α2B (0.03 μM) [3, 7]: 71%
- inhibition at 0.1 µM [2, 11]: 68%
SMILES: Cc1ccc2c(c1)c1c(n2CC(O)c2ccc(C#N)cc2)CCN(C)C1 (single isomer, unassigned) [142a]
